Assay results reported in publication PMC12165799, “Antimicrobial peptide developed with machine learning sequence optimization targets drug resistant Staphylococcus aureus in mice” (The Journal of Clinical Investigation, 2025).

Key:
[1] = tested on: S. aureus MW2 skin infection; test: Skin-abraded murine infection, prophylactic (acute) model, bacterial load; type: in vivo, mice; conditions: for Reduction of S. aureus MW2 burden vs vehicle, prophylactic model: single treatment 10 minutes after inoculation, n = 12; for Reduction of S. aureus MW2 burden, repeat of prophylactic model: n = 8
Protocol: (§1) 599 In vivo murine skin infection and treatment
(§2) 600 We used a topical skin-abraded murine infection model with minor modifications to test
(§3) 601 the in vivo efficacy of the CIT-8 peptide (25). We performed all mouse studies following the
(§4) 602 protocol approved by the Institutional Animal Care and Use Committee. In brief, we anesthetized
(§5) 603 female C57BL/6 mice (6 weeks) (Jackson Laboratory, Bar Harbor, ME, USA) with ketamine-
(§6) 604 xylazine (90 mg/kg ketamine and 10 mg/kg xylazine) via intraperitoneal injection. We shaved the
(§7) 605 dorsal side of the mice in the middle of the back (area=2 cm2). To disrupt skin integrity, we tape-
(§8) 606 stripped with Tensoplast® seven times in succession, replacing the tape each time, resulting in
(§9) 607 visibly damaged skin. We infected the damaged skin area with 1 × 10^7 CFU of S. aureus MW2
(§10) 608 (exponential phase bacteria in PBS) with an inoculum of 50 µl using a pipette tip. Ten minutes
(§11) 609 (prophylactic model) and 24 h (established model) after bacterial inoculation, we applied 30 mg
(§12) 610 of 1 and 2% (w/w) CIT-8 ointment in a white petroleum jelly base (Cat no. 19-090-843, Fisher
(§13) 611 Scientific, MA, USA) to the skin. We also included animal groups treated with only petroleum
(§14) 612 jelly or with 2% commercial mupirocin ointment as negative and positive controls, respectively.
(§15) 613 For pain management, we used the analgesic buprenorphine SR (0.05 mg/kg).
(§16) 614 After 24 h of treatment, we euthanized the animals, separated the skin from the underlying
(§17) 615 fascia and muscle tissue, and excised about 2 cm2 of skin from the infected area. We ground the
(§18) 616 skin in 1ml of PBS buffer (Gibco, MD, USA). We serially diluted 100 µl of the solution in PBS
(§19) 617 and plated it on Remel™ TSA plates (Fisher, MA, USA) to estimate viable colony counts after 18
(§20) 618 h of incubation at 37 °C. Further, we added 10 µl of EDTA-Free, protease inhibitor cocktail Set III
(§21) 619 (Millipore Sigma, MA, USA) to 500 µl of the ground skin PBS solution for cytokine estimation.
(§22) 620 The Cytokine Core, LLC (Indianapolis, IN, USA) performed the cytokine concentration analysis

S. aureus MW2 = test: Cryo-electron microscopy; type: cell-based, Staphylococcus aureus; conditions: 80 μg/mL, 60 minutes
Protocol: 506 containing 50 µl BacTiter-Glo reagent (Promega, WI, USA) and measured plate luminescence as
507 previously described (18) after 5 min of incubation at room temperature.
509 Cryo-electron microscopy (cryo-EM)
510 We statically treated 10 ml of an exponential-phase S. aureus MW2 culture (OD600 = 0.4,
For imaging, we vitrified the
512 bacteria cells using Leica EM-GP2® plunger (Leica Microsystems, Wetzlar, Germany) on R2×2
513 Quantifoil® carbon holey film (Micro Tools GmbH, Jena, Germany) grids as previously described
514 (19). Briefly, we applied a 4 µl of bacterial suspensions to the grids pre-cleaned in a Gatan Solarus
515 950 plasma cleaner (Gatan, Inc, USA), blotted with filter paper, and plunged into liquid ethane.
516 We stored the frozen grids under liquid nitrogen until used for microscopy. We then transferred
517 the grids into a JEM 2200FS electron microscope (JEOL Ltd, Akishima, Japan) operating at 200
518 keV and equipped with a field emission gun, in-column electron energy filter (omega type) and a
519 DE20 direct electron detector camera (Direct Electron Inc., CA, USA). We used a 20 eV energy
520 slit width during data acquisition. Total electron dose/image was ~15 electrons/Å2. Image pixel
521 size was 3.66 Å on the specimen scale.
523 Scanning electron microscopy (SEM)
524 We followed an established protocol with minor modification to perform SEM imaging of […]

TNFA, IL6, MCP1 = test: Cytokine estimation in infected murine skin (prophylactic model); type: in vivo, mice; set-up: TNFA in murine skin / IL6 in murine skin / MCP1 in murine skin: unit not given here; conditions: 2% w/w
Protocol: as §1, §2, §3, §4, §5, §6, §7, §8, §9, §10, §11, §12, §13, §14, §15, §16, §17, §18, §19, §20, §21, §22

H-GLFKVIKKLLKVI-NH2 [CIT-8]
Bacterial load from skin specimens, prophylactic model ([1]; 1% ointment 10 minutes after infection, animal 1): 11428571
Bacterial load from skin specimens, prophylactic model ([1]; 1% ointment 10 minutes after infection, animal 2): 16000000
Bacterial load from skin specimens, prophylactic model ([1]; 1% ointment 10 minutes after infection, animal 3): 1555556
Bacterial load from skin specimens, prophylactic model ([1]; 1% ointment 10 minutes after infection, animal 4): 3636364
Bacterial load from skin specimens, prophylactic model ([1]; 1% ointment 10 minutes after infection, animal 5): 6000000
Bacterial load from skin specimens, prophylactic model ([1]; 1% ointment 10 minutes after infection, animal 6): 3111111
Bacterial load from skin specimens, prophylactic model ([1]; 1% ointment 10 minutes after infection, animal 7): 2250000
Bacterial load from skin specimens, prophylactic model ([1]; 1% ointment 10 minutes after infection, animal 8): 2200000
Bacterial load from skin specimens, prophylactic model ([1]; 1% ointment 10 minutes after infection, animal 9): 4210526
Bacterial load from skin specimens, prophylactic model ([1]; 1% ointment 10 minutes after infection, animal 10): 6153846
Bacterial load from skin specimens, prophylactic model ([1]; 1% ointment 10 minutes after infection, animal 11): 4000000
Bacterial load from skin specimens, prophylactic model ([1]; 1% ointment 10 minutes after infection, animal 12): 6060606
Reduction of S. aureus MW2 burden vs vehicle, prophylactic model ([1]; 1% w/w ointment): 1.7 log
Reduction of S. aureus MW2 burden, repeat of prophylactic model ([1]; 1% w/w): 1.4 log
Bacterial load from skin specimens, prophylactic model ([1]; 2% ointment 10 minutes after infection, animal 1): 1000000
Bacterial load from skin specimens, prophylactic model ([1]; 2% ointment 10 minutes after infection, animal 2): 1142857
Bacterial load from skin specimens, prophylactic model ([1]; 2% ointment 10 minutes after infection, animal 3): 2400000
Bacterial load from skin specimens, prophylactic model ([1]; 2% ointment 10 minutes after infection, animal 4): 444444
Bacterial load from skin specimens, prophylactic model ([1]; 2% ointment 10 minutes after infection, animal 5): 1684211
Bacterial load from skin specimens, prophylactic model ([1]; 2% ointment 10 minutes after infection, animal 6): 4000000
Bacterial load from skin specimens, prophylactic model ([1]; 2% ointment 10 minutes after infection, animal 7): 666667
Bacterial load from skin specimens, prophylactic model ([1]; 2% ointment 10 minutes after infection, animal 8): 923077
Bacterial load from skin specimens, prophylactic model ([1]; 2% ointment 10 minutes after infection, animal 9): 909091
Bacterial load from skin specimens, prophylactic model ([1]; 2% ointment 10 minutes after infection, animal 10): 4923077
Bacterial load from skin specimens, prophylactic model ([1]; 2% ointment 10 minutes after infection, animal 11): 3666667
Bacterial load from skin specimens, prophylactic model ([1]; 2% ointment 10 minutes after infection, animal 12): 1200000
Reduction of bacterial burden, mouse model of MRSA skin infection ([1]; 2% w/w in petroleum jelly (abstract)): 2.3 log10
Reduction of S. aureus MW2 burden vs vehicle, prophylactic model ([1]; 2% w/w ointment): 2.3 log
Reduction of S. aureus MW2 burden, repeat of prophylactic model ([1]; 2% w/w): 2.1 log
Cryo-EM appearance of treated cells (S. aureus MW2): membrane disruption and perturbation
IL6 in murine skin (TNFA, IL6, MCP1; animal 1): 3.152
MCP1 in murine skin (TNFA, IL6, MCP1; animal 1): 6.488
TNFA in murine skin (TNFA, IL6, MCP1; animal 1): 126
IL6 in murine skin (TNFA, IL6, MCP1; animal 2): 2.798
MCP1 in murine skin (TNFA, IL6, MCP1; animal 2): 3.271
TNFA in murine skin (TNFA, IL6, MCP1; animal 2): 153.385
IL6 in murine skin (TNFA, IL6, MCP1; animal 3): 1.183
MCP1 in murine skin (TNFA, IL6, MCP1; animal 3): 2.973
TNFA in murine skin (TNFA, IL6, MCP1; animal 3): 114.591
IL6 in murine skin (TNFA, IL6, MCP1; animal 4): 2.409
MCP1 in murine skin (TNFA, IL6, MCP1; animal 4): 4.047
TNFA in murine skin (TNFA, IL6, MCP1; animal 4): 182.154
IL6 in murine skin (TNFA, IL6, MCP1; animal 5): 1.071
MCP1 in murine skin (TNFA, IL6, MCP1; animal 5): 1.51
TNFA in murine skin (TNFA, IL6, MCP1; animal 5): 103
IL6 in murine skin (TNFA, IL6, MCP1; animal 6): 5.43
MCP1 in murine skin (TNFA, IL6, MCP1; animal 6): 10.445
TNFA in murine skin (TNFA, IL6, MCP1; animal 6): 372.2
Reduction of IL6 level in skin (TNFA, IL6, MCP1; n = 6): 5 fold
Reduction of MCP1 level in skin (TNFA, IL6, MCP1; n = 6): 5 fold
Reduction of TNFA level in skin (TNFA, IL6, MCP1; n = 6): 2.5 fold
